# Reference: patent publication US20160331754A1, “THERAPIES FOR TREATING CANCERS” (GILEAD SCIENCES, INC., priority 2014, published 2016)
# “And” between values parts separate entries of the source, which are not always exact repeats. Equal values may be shown once.
# Tests used:
# p-AKT Ser473 [1] = assay: Western blot, TPO-activated AKT phosphorylation in BaF3/MPL cells; type: cell-based; conditions: then TPO 50 ng/mL 10 min
# Method: (§1) In addition, Compound B was examined for the effects on the PI3K signaling pathway by determining the levels of AKT and S6 phosphorylation with or without TPO activation. Two cell lines, BaF3/MPL and UT-7/TPO sensitive or responsive to TPO activation were used. The cells were starved (i.e. growing on medium having less FBS) in […] FBS/RPMI for two hours before treated with 0.1, 1.0, or 2.0 μM of Compound B or vehicle (0.1% DMSO in RPMI) for 2 hours at 37° C. To examine the TPO-activated phosphorylation, the cells were then treated or activated with 50 ng/mL of human recombinant TPO (Peprotech) for 10 minutes at 37° C. The TPO activation or treatment may reflect the conditions in diseased cells as the PI3K pathway is activated by TPO in myelofibrosis. After treating with compound and/or TPO, the cells were collected, lysed by lysis buffer (Cell Signaling), separated by SDS-PAGE, and analyzed by the Western blot using antibodies specific to p-AKT Ser473 or pS6 Ser235/236 (Cell Signaling). The phosphorylation levels in treated cells were calculated and compared to those of untreated cells (i.e. vehicle as negative control).
# pS6RP Ser235/236 [2] = assay: Flow cytometry, basal S6RP phosphorylation in CD34+ progenitor cells from MF patients; type: cell-based, human; conditions: data not shown
# Method: (§2) PBMCs were isolated from whole blood of myelofibrosis (MF) patients who had not received treatments (i.e. naïve patients) or received ruxolitinib (i.e. rux-treated patients). The cells were treated with 0.02, 0.2, or 2.0 μM of Compound B or vehicle (0.1% DMSO in 0.1% FBS/RPMI) for 2 hours at 37° C. The cells were then fixed, permeabilized, and stained for FACS analysis. Antibodies specific to p-AKT Ser473 and pS6RP Ser235/236 were used to detect AKT phosphorylation (p-AKT) and S6RP phosphorylation (p-S6RP) in CD34^+/CD3^−/CD14^−/CD19/CD66^− (BD Biosciences) gated cells using flow cytometry. The percentage of basal (i.e. untreated with TPO) AKT and S6RP phosphorylation were normalized to vehicle control. A two-tailed paired t-test (GraphPad Prism) was used to calculate p-values. Values of p<0.05 were considered significant.
# (§3) Similar studies were conducted with PI3K inhibitors Compounds C and D. PBMC from MF patients had received ruxolitinib (rux) and MF patient had received Compound A. The cells were treated with Compounds C or D at 0, 20.0, 200.0, 2000.0 nM for 2 hours at 37° C. Cells were treated with TPO for 10 minutes. The percentage of basal p-AKT and p-S6RP levels were normalized to vehicle control and those of TPO-treated were normalized to TPO-treated vehicle control. The PI3Kδ inhibitors Compound C is referred by the chemical names of (S)-2-(1-((9H-purin-6-yl)amino)ethyl)-6-fluoro-3-phenylquinazolin-4(3H)-one.
# pS6RP Ser235/236 [3] = assay: Flow cytometry, TPO-activated S6RP phosphorylation in CD34+ progenitor cells from MF patients; type: cell-based, human; conditions: for p-S6RP (table title: percentage of Annexin-V positive cells): cells from Compound A-treated MF patients; for normalized percentage of TPO-activated S6RP phosphorylation (p-S6RP): TPO-treated vehicle=100
# Method: as §2
# (§4) Also, PBMC cells from naïve or ruxolitinib treated patients were isolated and treated with Compound B and with TPO as described above. The percentage of TPO-activated AKT and S6RP phosphorylation were normalized to those of TPO-treated vehicle (“no TPO” values in Table 4). […] Also, the inhibition to PI3K signaling was dose-dependent to Compound B.
# as §3
# pS6 Ser235/236 [4] = assay: Western blot, TPO-activated S6 phosphorylation in UT-7/TPO cells; type: cell-based; conditions: then TPO
# Method: as §1
# [5] = Plasma concentration in patient at clinical dose; type: in vivo, human; conditions: clinical dose 150 mg, twice a day
# autologous B cells = assay: Whole blood (WB) autologous B-cell depletion assay; type: cell-based
# Method: Further, whole blood (WB) autologous B-cell depletion and cell-death induction assays were conducted as described in Mossner et al., Blood 115:4393-402, 2010. For cell death assay: Ri-1 DLBCL cells were seeded at 15,000 cells/well in 96-well plates. Cells were preincubated with Compound B or DMSO for 1 hour before the addition of antibody. Plates were incubated at 37° C. in a humidified CO2 chamber for 3 days. Cells were washed once with PBS and treated with Accutase for 15 minutes before being stained with Guava Nexin® reagent and analyzed on the Guava EasyCyte flow cytometer (Merck Millipore).
# The percentage of deplete autologous B cells in a whole blood assay may represent the antibody potency.
# p-AKT Ser473 [6] = assay: Flow cytometry, basal AKT phosphorylation in CD34+ progenitor cells from MF patients; type: cell-based, human; conditions: one line per patient, vehicle=100
# Method: as §2, §3
# pS6 Ser235/236 [7] = assay: Western blot, TPO-activated S6 phosphorylation in BaF3/MPL cells; type: cell-based; conditions: then TPO
# Method: as §1
# PI3Kδ = PI3Kδ (Homo sapiens, UniProt O00329); assay: TR-FRET in vitro biochemical enzyme assay of class I PI3K isoforms
# Method: The effects of Compound B on the activities of class I PI3K isoforms were measured using an in vitro biochemical enzyme assay at steady-state concentrations of adenosine triphosphate (ATP). Compound B is (S)-2-(1-((9H-purin-6-yl)amino)propyl)-5-fluoro-3-phenylquinazolin-4(3H)-one as described above.
# A time resolved fluorescence resonance energy transfer (TR-FRET) assay was used to monitor the formation of […] (PIP3) molecule, as it competed with fluorescently labeled PIP3 for binding to the GRP-1 pleckstrin homology domain protein.
# p-AKT Ser473 [8] = assay: Flow cytometry, TPO-activated AKT phosphorylation in CD34+ progenitor cells from MF patients; type: cell-based, human; conditions: for p-AKT (table title: percentage of Annexin-V positive cells): cells from Compound A-treated MF patients; for normalized percentage of TPO-activated AKT phosphorylation (p-AKT): TPO-treated vehicle=100
# Method: as §2, §4, §3
# [9] = 0.02 μM, rux-treated MF patients
# [10] = 0.2 μM, rux-treated MF patients
# Sequence of PI3Kδ (O00329 whole entry, canonical isoform): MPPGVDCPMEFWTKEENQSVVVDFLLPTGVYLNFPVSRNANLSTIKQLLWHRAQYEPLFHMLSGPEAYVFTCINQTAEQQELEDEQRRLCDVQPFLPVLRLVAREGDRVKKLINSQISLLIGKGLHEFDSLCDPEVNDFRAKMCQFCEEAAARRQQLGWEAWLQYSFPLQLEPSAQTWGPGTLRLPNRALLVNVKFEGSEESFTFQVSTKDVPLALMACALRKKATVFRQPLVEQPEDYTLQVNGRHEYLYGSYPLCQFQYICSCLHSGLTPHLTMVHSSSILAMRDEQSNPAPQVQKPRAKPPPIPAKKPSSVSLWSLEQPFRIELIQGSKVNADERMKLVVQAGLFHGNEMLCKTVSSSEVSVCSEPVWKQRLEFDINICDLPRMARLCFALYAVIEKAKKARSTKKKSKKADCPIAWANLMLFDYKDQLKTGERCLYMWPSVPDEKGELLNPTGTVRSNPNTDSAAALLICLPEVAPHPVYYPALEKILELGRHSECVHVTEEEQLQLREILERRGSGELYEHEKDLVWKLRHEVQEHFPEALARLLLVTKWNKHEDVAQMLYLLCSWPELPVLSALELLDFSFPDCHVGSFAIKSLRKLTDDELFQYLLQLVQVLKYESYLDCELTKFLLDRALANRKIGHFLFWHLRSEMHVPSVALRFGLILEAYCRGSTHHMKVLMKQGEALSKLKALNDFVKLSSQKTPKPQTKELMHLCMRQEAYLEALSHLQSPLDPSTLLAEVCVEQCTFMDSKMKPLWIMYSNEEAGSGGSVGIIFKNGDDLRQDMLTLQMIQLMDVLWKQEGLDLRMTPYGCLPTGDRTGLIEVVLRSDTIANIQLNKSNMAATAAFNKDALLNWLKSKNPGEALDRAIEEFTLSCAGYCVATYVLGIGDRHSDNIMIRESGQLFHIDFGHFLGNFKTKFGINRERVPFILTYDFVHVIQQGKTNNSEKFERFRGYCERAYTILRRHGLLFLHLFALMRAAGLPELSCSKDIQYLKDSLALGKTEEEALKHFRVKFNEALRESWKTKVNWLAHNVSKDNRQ
# Sequence of PI3Kδ (P27986 whole entry partner, canonical isoform): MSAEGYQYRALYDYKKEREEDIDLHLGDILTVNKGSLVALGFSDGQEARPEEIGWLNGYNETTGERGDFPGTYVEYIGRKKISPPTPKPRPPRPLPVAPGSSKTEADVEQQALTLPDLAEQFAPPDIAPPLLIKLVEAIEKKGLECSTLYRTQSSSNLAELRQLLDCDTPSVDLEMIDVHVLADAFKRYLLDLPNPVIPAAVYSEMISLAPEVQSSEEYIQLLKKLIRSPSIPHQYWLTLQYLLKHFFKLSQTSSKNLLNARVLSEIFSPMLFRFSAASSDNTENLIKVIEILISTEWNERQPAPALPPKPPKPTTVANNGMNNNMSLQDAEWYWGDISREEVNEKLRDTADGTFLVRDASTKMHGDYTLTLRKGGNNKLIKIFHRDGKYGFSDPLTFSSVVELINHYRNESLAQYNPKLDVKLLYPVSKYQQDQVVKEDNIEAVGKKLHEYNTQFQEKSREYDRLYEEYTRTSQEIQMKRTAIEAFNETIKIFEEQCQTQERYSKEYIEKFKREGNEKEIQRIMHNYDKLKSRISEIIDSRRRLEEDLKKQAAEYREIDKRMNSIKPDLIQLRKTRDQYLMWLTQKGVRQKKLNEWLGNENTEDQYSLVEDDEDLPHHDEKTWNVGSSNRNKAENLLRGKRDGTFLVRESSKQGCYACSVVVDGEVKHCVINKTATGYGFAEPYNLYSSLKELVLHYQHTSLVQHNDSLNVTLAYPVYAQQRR
structure (smiles),measurement,setting,value
"CC[C@H](Nc1ncnc2[nH]cnc12)c1nc2cccc(F)c2c(=O)n1-c1ccccc1 [Compound B, (S)-2-(1-((9H-purin-6-yl)amino)propyl)-5-fluoro-3-phenylquinazolin-4(3H)-one]",reduced p-AKT levels vs vehicle,p-AKT Ser473 [1]; 0.1 μM 2 h,51%
same,reduced p-AKT levels vs vehicle,p-AKT Ser473 [1]; 1.0 μM 2 h,64%
same,reduced p-AKT levels vs vehicle,p-AKT Ser473 [1]; 2.0 μM 2 h,67%
same,basal p-S6RP level vs untreated cells,pS6RP Ser235/236 [2],reduced levels
same,p-S6RP (table title: percentage of Annexin-V positive cells),pS6RP Ser235/236 [3]; 0.02 μM,61% and 69% and 64%
same,normalized percentage of TPO-activated S6RP phosphorylation (p-S6RP),"pS6RP Ser235/236 [3]; 0.02 μM, naïve MF patients",57% and 50% and 86%
same,normalized percentage of TPO-activated S6RP phosphorylation (p-S6RP),pS6RP Ser235/236 [3]; [9],55% and 79% and 60% and 59% and 53% and 62%
same,p-S6RP (table title: percentage of Annexin-V positive cells),pS6RP Ser235/236 [3]; 0.2 μM,52% and 54% and 42%
same,normalized percentage of TPO-activated S6RP phosphorylation (p-S6RP),"pS6RP Ser235/236 [3]; 0.2 μM, naïve MF patients",48% and 42% and 69%
same,normalized percentage of TPO-activated S6RP phosphorylation (p-S6RP),pS6RP Ser235/236 [3]; [10],35% and 56% and 55% and 50% and 32% and 44%
same,p-S6RP (table title: percentage of Annexin-V positive cells),pS6RP Ser235/236 [3]; 2.0 μM,30% and 34% and 25%
same,reduced p-S6 levels vs vehicle,pS6 Ser235/236 [4]; 0.1 μM 2 h,13%
same,reduced p-S6 levels vs vehicle,pS6 Ser235/236 [4]; 1.0 μM 2 h,28%
same,reduced p-S6 levels vs vehicle,pS6 Ser235/236 [4]; 2.0 μM 2 h,48%
same,"maximal average plasma concentration (Cmax), adjusted for protein binding",[5],256 nM
same,Percentage of B-cell depletion WB,autologous B cells; Compound B alone 100 nM,5% and −1% and −3%
same,Percentage of B-cell depletion WB,autologous B cells; Compound B alone 760 nM,−1% and −4%
same,Percentage of B-cell depletion WB,autologous B cells; Compound B alone 4200 nM,0% and 1% and 5%
same,normalized percentage of basal AKT phosphorylation (p-AKT),"p-AKT Ser473 [6]; 0.02 μM 2 h, naïve MF patients",99% and 102% and 83% and 88% and 84%
same,normalized percentage of basal AKT phosphorylation (p-AKT),"p-AKT Ser473 [6]; 0.02 μM 2 h, rux-treated MF patients",88% and 89% (2×) and 91% and 57% and 96% and 100%
same,normalized percentage of basal AKT phosphorylation (p-AKT),"p-AKT Ser473 [6]; 0.2 μM 2 h, naïve MF patients",64% and 127% and 75% and 76% and 81% and 72%
same,normalized percentage of basal AKT phosphorylation (p-AKT),"p-AKT Ser473 [6]; 0.2 μM 2 h, rux-treated MF patients",85% and 78% and 81% and 82% (2×) and 52% and 87%
same,normalized percentage of basal AKT phosphorylation (p-AKT),"p-AKT Ser473 [6]; 2 μM 2 h, naïve MF patients",55% and 96% and 66% (2×) and 70% and 47%
same,normalized percentage of basal AKT phosphorylation (p-AKT),"p-AKT Ser473 [6]; 2 μM 2 h, rux-treated MF patients",69% and 77% and 83% and 84% and 43% and 98% and 79%
same,reduced p-S6 levels vs vehicle,pS6 Ser235/236 [7]; 0.1 μM 2 h,24%
same,reduced p-S6 levels vs vehicle,pS6 Ser235/236 [7]; 1.0 μM 2 h,27%
same,reduced p-S6 levels vs vehicle,pS6 Ser235/236 [7]; 2.0 μM 2 h,41%
same,selectivity among PI3K isoforms,PI3Kδ,selective inhibitor to PI3Kδ
same,inhibition to PI3Kδ compared to PI3Kα,PI3Kδ; steady-state ATP,450 fold
same,inhibition to PI3Kδ compared to PI3Kβ,PI3Kδ; steady-state ATP,210 fold
same,inhibition to PI3Kδ compared to PI3Kγ,PI3Kδ; steady-state ATP,110 fold
same,p-AKT (table title: percentage of Annexin-V positive cells),"p-AKT Ser473 [8]; 0.02 μM, column 0 = 100",56% and 74% and 51%
same,normalized percentage of TPO-activated AKT phosphorylation (p-AKT),"p-AKT Ser473 [8]; 0.02 μM, naïve MF patients, one line per patient",43% and 60% and 58%
same,normalized percentage of TPO-activated AKT phosphorylation (p-AKT),p-AKT Ser473 [8]; [9],59% and 60% and 78% and 55% and 57%
same,p-AKT (table title: percentage of Annexin-V positive cells),p-AKT Ser473 [8]; 0.2 μM,49% and 71% and 51%
same,normalized percentage of TPO-activated AKT phosphorylation (p-AKT),"p-AKT Ser473 [8]; 0.2 μM, naïve MF patients",30% and 32% and 41%
same,normalized percentage of TPO-activated AKT phosphorylation (p-AKT),p-AKT Ser473 [8]; [10],39% and 52% and 55% and 57% and 36% and 33%
same,normalized percentage of TPO-activated AKT phosphorylation (p-AKT),"p-AKT Ser473 [8]; 2.0 μM, naïve MF patients",28% and 32% and 27%
